Reference: ChEMBL document CHEMBL1201862, “PubChem BioAssay data set” (2004)
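Growth conditions: 96-well plates. Treatment: test compound, 48 hours, 5 concentrations. Analysis: linear interpolation between bracketing concentrations; unreached endpoints set to highest concentration. Here, GI50 denotes the concentration required for 50% inhibition of growth.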 Active and inactive are the calls of the source. Cut-off read from the data, not from the text of the source: active = GI50 up to about 1.1 µM and inactive = higher.

What was measured:
Experiment in all cases: growth of human tumour cells (NCI), 48 h
[1] = system: NCI-H460
[2] = system: RXF 393
[3] = system: SNB-75
[4] = system: SF-268
[5] = system: SF-295
[6] = system: OVCAR-8
[7] = system: SN12C
[8] = system: HCT-15
[9] = system: DU-145
[10] = system: OVCAR-3
[11] = system: UACC-62
[12] = system: T47D
[13] = system: SK-MEL-5
[14] = system: SW-620
[15] = system: Hs-578T
[16] = system: HL-60
[17] = system: SF-539
[18] = system: A549
[19] = system: M14
[20] = system: HOP-92

SMILES	GI50 [1]	GI50 [2]	GI50 [3]	GI50 [4]	GI50 [5]	GI50 [6]	GI50 [7]	GI50 [8] [µM]	GI50 [9]	GI50 [10]	GI50 [11]	GI50 [12]	GI50 [13]	GI50 [14]	GI50 [15]	GI50 [16]	GI50 [17]	GI50 [18]	GI50 [19]	GI50 [20]
COCCOC(=O)C(C)=[N+]=[N-]	> 100 µM (inactive)	> 100 µM (inactive)	> 100 µM (inactive)	> 100 µM (inactive)	> 100 µM (inactive)	> 100 µM (inactive)	> 100 µM (inactive)	> 100	> 100 µM (inactive)	> 100 µM (inactive)	> 100 µM (inactive)	> 100 µM (inactive)	> 100 µM (inactive)	> 100 µM (inactive)	> 100 µM (inactive)	–	–	–	–	–
COc1ccc(-c2nc3c(C(=O)NCCN(C)C)cccc3c3ccccc23)cc1	2.45 µM (inactive)	–	5.13 µM (inactive)	8.53 µM (inactive)	2.18 µM (inactive)	4.4 µM (inactive)	4.2 µM (inactive)	2.92	4.65 µM (inactive)	4.57 µM (inactive)	1.83 µM (inactive)	8.99 µM (inactive)	1.74 µM (inactive)	3.62 µM (inactive)	5.3 µM (inactive)	2.07 µM (inactive)	2.21 µM (inactive)	3.1 µM (inactive)	1.98 µM (inactive)	3.51 µM (inactive)
C=C1CC(COc2cc(=O)oc3ccccc23)(c2ccccc2)OC1=O (centres undefined)	9.29 µM (inactive)	–	4.25 µM (inactive)	7.33 µM (inactive)	5.15 µM (inactive)	1.86 µM (inactive)	1.91 µM (inactive)	1.82	2.44 µM (inactive)	1.37 µM (inactive)	1.41 µM (inactive)	2.25 µM (inactive)	1.71 µM (inactive)	1.17 µM (inactive)	3.53 µM (inactive)	0.407 µM (active)	2.74 µM (inactive)	11.2 µM (inactive)	1.51 µM (inactive)	1.01 µM (active)
COC(=O)c1sc(=S)sc1SCc1cccc(CSc2sc(=S)sc2C(=O)OC)c1	> 100 µM (inactive)	16.2 µM (inactive)	11.6 µM (inactive)	44.5 µM (inactive)	26 µM (inactive)	> 100 µM (inactive)	> 100 µM (inactive)	> 100	> 100 µM (inactive)	63.4 µM (inactive)	22.9 µM (inactive)	> 100 µM (inactive)	> 100 µM (inactive)	> 100 µM (inactive)	36.3 µM (inactive)	–	24.6 µM (inactive)	–	71.3 µM (inactive)	29.4 µM (inactive)
Nc1ccccc1-c1noc(=O)[nH]1	–	> 100 µM (inactive)	> 100 µM (inactive)	> 100 µM (inactive)	> 100 µM (inactive)	> 100 µM (inactive)	> 100 µM (inactive)	> 100	> 100 µM (inactive)	> 100 µM (inactive)	> 100 µM (inactive)	> 100 µM (inactive)	> 100 µM (inactive)	> 100 µM (inactive)	> 100 µM (inactive)	–	> 100 µM (inactive)	> 100 µM (inactive)	> 100 µM (inactive)	> 100 µM (inactive)
Cc1cc(C)cc(Nc2nnc3n2S(=O)(=O)c2cc(C#N)c(Cl)cc2S3)c1	3.14 µM (inactive)	1.59 µM (inactive)	2.32 µM (inactive)	2.2 µM (inactive)	2.84 µM (inactive)	–	2.59 µM (inactive)	2.52	3.14 µM (inactive)	1.57 µM (inactive)	3.97 µM (inactive)	3.26 µM (inactive)	7.55 µM (inactive)	2.39 µM (inactive)	2.68 µM (inactive)	1.68 µM (inactive)	1.89 µM (inactive)	16.2 µM (inactive)	5.57 µM (inactive)	–
O=C1NNC2NC(=O)C3(NN2C1=O)c1ccccc1-c1ccccc13 (centres undefined)	> 100 µM (inactive)	> 100 µM (inactive)	> 100 µM (inactive)	> 100 µM (inactive)	> 100 µM (inactive)	> 100 µM (inactive)	> 100 µM (inactive)	> 100	> 100 µM (inactive)	> 100 µM (inactive)	> 100 µM (inactive)	–	> 100 µM (inactive)	> 100 µM (inactive)	> 100 µM (inactive)	> 100 µM (inactive)	> 100 µM (inactive)	> 100 µM (inactive)	> 100 µM (inactive)	> 100 µM (inactive)
C[C@]12CC/C(=N\OCCN3CCCC3)C=C1CCC1C2CC[C@@]2(C)C1CC[C@]2(C)O (some centres undefined)	3.97 µM (inactive)	19.3 µM (inactive)	2.3 µM (inactive)	13.3 µM (inactive)	3.35 µM (inactive)	14 µM (inactive)	7.13 µM (inactive)	3.29	11.3 µM (inactive)	8.39 µM (inactive)	3.35 µM (inactive)	12.3 µM (inactive)	14.8 µM (inactive)	–	13.8 µM (inactive)	–	6.62 µM (inactive)	11.5 µM (inactive)	13.9 µM (inactive)	11.7 µM (inactive)
